The record followed here is a compilation of properties of binary mixtures (doi:10.1016/j.fluid.2017.10.015).

Each structure is given as a SMILES string. Several values for one entry are separate records, joined by “and”; a condition that tells them apart may be missing. Equal entries are not always repeated.

This series is described as follows: xn = mol fraction of the nth substance listed. The conditions noted are these: 100 kPa.

In the case of `O` + CCCCCCCCCCCC[N+]1(C)CCCC1.O=C([O-])c1ccccc1O, the electrical conductivity reads like this: (298.15 K, x2 = 0) 0.0089 S/m and 0.0093 S/m and 0.0105 S/m; (308.15 K, x2 = 0) 0.0116 S/m and 0.0126 S/m and 0.0139 S/m; (318.15 K, x2 = 0) 0.0153 S/m and 0.0171 S/m; (328.15 K, x2 = 0) 0.0172 S/m and 0.0186 S/m and 0.0212 S/m.
Regarding `CCCCCCCCCCCC[N+]1(C)CCCCC1.O=C([O-])c1ccccc1O` + O, the electrical conductivity (328.15 K, x1 = 0.0001) is 0.0271 S/m.
`CCCCCCCCCCCC[N+]1(C)CCCC1.O=C([O-])c1ccccc1O` + O: the electrical conductivity was 0.0115 S/m (298.15 K, x1 = 0.0001); 0.0161 S/m (308.15 K, x1 = 0.0001); 0.0185 S/m and 0.0235 S/m (318.15 K, x1 = 0.0001); 0.0231 S/m and 0.0293 S/m (328.15 K, x1 = 0.0001).
